Test results from ChEMBL document CHEMBL1201862, “PubChem BioAssay data set” (2004).
The source made the active and inactive calls.

What was measured:
[1] = Shn3 3'UTR reporter inhibitors, dose response, cell-based, Clone20 osteoblasts, firefly luciferase, cherry-picked (AID 624132); type: functional;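 note: firefly luciferase luminescence from reporter carrying the Shn3 3'UTR in osteoblasts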
Protein RecA = target: T1, Protein RecA (Mycobacterium tuberculosis, UniProt P9WHJ3); test: Fluorescence Cell-Free Homogeneous Dose Retest to Identify Inhibitors of RecA-Intein Splicing Activity. [Related pubchem assays (depositor defined):AID2097, AID2223, AID489010, AID492950]; type: functional
T1 sequence (P9WHJ3 whole entry): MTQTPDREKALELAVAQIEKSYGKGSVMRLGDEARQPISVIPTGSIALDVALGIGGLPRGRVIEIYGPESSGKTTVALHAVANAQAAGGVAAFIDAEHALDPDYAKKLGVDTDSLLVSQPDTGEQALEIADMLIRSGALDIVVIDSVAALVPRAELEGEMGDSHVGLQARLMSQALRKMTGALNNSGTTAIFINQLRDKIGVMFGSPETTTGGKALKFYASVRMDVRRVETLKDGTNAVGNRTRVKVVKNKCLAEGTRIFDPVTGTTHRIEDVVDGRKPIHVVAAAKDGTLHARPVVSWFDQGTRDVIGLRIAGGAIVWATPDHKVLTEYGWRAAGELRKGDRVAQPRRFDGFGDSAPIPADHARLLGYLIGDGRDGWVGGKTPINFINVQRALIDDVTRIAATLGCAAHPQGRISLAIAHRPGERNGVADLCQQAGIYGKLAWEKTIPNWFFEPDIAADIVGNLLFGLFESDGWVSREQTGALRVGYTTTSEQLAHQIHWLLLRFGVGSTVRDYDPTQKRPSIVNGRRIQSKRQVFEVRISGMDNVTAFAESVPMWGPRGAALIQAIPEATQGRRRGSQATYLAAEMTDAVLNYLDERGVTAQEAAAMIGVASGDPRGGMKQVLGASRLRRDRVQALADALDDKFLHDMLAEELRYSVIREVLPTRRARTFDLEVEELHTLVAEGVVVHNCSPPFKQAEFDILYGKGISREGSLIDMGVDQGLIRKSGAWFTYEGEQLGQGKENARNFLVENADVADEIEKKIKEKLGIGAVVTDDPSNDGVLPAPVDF

[2] = control 3'UTR Renilla luciferase suppression, dose response, counter-screen for Shn3 inhibitor project, cell-based, Clone20-Shn3RL, cherry-picked (AID 624133); type: functional
[3] = target: T2, Replicative DNA helicase DnaB (Mycobacterium tuberculosis, UniProt P9WMR3); test: DnaB intein splicing inhibitors, dose response, biochemical, cell-free fluorescence (AID 449749); type: functional
T2 sequence (P9WMR3 whole entry): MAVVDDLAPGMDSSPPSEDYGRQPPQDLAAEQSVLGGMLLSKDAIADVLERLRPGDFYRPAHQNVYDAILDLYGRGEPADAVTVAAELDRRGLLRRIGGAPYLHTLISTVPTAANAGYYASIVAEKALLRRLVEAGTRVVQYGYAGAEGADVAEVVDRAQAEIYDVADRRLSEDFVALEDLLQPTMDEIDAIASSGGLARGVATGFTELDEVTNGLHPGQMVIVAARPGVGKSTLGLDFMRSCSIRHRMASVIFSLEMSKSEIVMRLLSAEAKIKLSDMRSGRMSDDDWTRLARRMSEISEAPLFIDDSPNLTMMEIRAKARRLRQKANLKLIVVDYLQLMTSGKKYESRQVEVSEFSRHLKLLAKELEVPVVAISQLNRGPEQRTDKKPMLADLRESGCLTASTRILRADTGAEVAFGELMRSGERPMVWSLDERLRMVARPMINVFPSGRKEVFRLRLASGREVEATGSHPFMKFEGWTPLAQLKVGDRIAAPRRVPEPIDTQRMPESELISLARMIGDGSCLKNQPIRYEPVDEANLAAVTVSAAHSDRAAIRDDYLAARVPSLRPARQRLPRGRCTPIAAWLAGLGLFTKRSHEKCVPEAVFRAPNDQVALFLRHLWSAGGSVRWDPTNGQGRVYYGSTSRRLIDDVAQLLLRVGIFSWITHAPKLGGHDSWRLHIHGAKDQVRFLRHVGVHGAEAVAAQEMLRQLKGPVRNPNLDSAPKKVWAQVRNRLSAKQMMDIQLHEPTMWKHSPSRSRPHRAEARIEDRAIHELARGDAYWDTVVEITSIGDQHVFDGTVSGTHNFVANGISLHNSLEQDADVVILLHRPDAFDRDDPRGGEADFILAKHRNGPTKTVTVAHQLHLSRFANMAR

[4] = target: Neurotensin receptor type 1 (Homo sapiens, UniProt P30989); type: functional;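 note: Image-based confirmatory dose-response assay measuring agonist activity at NTR1; NTR1-expressing U2OS osteosarcoma cells imaged for beta-arrestin GFP spot formation; agonist potency where compounds increase beta-arrestin recruitment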
Sequence of Neurotensin receptor type 1 (P30989 whole entry): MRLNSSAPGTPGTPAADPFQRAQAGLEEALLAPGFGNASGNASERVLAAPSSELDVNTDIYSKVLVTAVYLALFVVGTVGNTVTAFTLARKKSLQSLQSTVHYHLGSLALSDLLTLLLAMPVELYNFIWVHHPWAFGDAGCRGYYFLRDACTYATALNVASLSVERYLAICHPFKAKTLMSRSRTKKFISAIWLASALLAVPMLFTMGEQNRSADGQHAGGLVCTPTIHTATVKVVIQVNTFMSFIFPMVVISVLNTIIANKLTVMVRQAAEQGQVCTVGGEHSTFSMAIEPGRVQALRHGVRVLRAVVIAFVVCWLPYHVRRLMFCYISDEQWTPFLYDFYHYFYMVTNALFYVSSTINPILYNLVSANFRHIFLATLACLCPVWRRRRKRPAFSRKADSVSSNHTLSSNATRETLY

[5] = HepG2 cell cytotoxicity, dose response, cytotoxicity control for Shn3 inhibitor project, CellTiter-Glo, cherry-picked (AID 624134); type: functional, cell-based
[6] = target: Lysosomal acid glucosylceramidase (Homo sapiens, UniProt P04062); test: Dose response cell-based high throughput screening assay to identify enhancers of beta-glucosidase activity. [Related pubchem assays: 784 ]; type: functional
Sequence of Lysosomal acid glucosylceramidase (P04062 whole entry): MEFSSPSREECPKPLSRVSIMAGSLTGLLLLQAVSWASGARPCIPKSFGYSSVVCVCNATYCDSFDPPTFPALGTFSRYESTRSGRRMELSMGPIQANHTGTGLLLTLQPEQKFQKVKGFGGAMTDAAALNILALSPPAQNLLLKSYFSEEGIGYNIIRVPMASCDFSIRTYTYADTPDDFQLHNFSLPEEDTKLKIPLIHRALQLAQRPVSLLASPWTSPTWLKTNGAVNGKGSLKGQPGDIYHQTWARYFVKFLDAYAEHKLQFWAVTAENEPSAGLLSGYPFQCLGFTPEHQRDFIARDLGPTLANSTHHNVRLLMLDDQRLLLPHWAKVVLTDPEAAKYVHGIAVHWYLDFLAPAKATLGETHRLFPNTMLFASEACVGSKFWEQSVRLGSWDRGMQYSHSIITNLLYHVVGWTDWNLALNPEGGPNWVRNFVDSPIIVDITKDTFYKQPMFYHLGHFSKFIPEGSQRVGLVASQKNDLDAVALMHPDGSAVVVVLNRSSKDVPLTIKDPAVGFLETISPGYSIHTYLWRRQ

SUMO-activating enzyme [7] = target: T3, SUMO-activating enzyme (Homo sapiens, UniProt Q9UBT2); test: SUMOylation inhibitor hit validation, confirmation, SUMOylation inhibitor project, biochemical, AlphaScreen (AID 2018); type: functional
T3 sequence (Q9UBE0 whole entry): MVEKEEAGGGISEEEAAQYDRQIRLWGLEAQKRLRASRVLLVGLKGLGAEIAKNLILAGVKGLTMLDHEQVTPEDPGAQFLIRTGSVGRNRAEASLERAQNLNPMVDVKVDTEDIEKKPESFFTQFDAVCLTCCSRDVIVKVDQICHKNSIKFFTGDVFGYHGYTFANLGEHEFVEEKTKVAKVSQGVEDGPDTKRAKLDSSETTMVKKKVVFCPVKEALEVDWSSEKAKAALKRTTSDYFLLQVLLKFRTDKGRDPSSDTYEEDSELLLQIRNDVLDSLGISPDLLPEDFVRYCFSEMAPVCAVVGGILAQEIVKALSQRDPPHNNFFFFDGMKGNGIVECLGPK
T3 sequence (Q9UBT2 whole entry): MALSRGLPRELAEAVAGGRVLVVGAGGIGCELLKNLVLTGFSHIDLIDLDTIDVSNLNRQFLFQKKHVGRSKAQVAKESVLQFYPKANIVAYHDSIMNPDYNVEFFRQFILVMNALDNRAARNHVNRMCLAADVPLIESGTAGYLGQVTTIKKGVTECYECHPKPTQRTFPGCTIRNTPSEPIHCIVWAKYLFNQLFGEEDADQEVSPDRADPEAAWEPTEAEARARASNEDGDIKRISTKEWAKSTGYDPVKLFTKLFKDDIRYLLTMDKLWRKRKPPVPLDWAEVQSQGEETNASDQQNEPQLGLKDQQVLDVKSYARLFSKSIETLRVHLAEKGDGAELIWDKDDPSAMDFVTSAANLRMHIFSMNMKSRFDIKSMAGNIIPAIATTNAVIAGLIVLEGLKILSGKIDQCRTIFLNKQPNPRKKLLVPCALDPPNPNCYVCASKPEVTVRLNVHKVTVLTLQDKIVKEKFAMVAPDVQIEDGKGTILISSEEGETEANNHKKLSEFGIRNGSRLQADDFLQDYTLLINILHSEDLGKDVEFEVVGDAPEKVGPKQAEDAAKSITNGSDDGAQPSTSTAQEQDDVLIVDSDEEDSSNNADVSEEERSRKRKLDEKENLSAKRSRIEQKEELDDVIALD

SUMO-activating enzyme [8] = target: T3, SUMO-activating enzyme; test: inhibitors of in vitro SUMOylation cascade, primary screen, biochemical, HTRF, uHTS (AID 2006); type: protein-complex assay
[9] = target: T4, Histone-lysine N-methyltransferase NSD2 (Homo sapiens, UniProt O96028); type: biochemical
T4 sequence (O96028 whole entry): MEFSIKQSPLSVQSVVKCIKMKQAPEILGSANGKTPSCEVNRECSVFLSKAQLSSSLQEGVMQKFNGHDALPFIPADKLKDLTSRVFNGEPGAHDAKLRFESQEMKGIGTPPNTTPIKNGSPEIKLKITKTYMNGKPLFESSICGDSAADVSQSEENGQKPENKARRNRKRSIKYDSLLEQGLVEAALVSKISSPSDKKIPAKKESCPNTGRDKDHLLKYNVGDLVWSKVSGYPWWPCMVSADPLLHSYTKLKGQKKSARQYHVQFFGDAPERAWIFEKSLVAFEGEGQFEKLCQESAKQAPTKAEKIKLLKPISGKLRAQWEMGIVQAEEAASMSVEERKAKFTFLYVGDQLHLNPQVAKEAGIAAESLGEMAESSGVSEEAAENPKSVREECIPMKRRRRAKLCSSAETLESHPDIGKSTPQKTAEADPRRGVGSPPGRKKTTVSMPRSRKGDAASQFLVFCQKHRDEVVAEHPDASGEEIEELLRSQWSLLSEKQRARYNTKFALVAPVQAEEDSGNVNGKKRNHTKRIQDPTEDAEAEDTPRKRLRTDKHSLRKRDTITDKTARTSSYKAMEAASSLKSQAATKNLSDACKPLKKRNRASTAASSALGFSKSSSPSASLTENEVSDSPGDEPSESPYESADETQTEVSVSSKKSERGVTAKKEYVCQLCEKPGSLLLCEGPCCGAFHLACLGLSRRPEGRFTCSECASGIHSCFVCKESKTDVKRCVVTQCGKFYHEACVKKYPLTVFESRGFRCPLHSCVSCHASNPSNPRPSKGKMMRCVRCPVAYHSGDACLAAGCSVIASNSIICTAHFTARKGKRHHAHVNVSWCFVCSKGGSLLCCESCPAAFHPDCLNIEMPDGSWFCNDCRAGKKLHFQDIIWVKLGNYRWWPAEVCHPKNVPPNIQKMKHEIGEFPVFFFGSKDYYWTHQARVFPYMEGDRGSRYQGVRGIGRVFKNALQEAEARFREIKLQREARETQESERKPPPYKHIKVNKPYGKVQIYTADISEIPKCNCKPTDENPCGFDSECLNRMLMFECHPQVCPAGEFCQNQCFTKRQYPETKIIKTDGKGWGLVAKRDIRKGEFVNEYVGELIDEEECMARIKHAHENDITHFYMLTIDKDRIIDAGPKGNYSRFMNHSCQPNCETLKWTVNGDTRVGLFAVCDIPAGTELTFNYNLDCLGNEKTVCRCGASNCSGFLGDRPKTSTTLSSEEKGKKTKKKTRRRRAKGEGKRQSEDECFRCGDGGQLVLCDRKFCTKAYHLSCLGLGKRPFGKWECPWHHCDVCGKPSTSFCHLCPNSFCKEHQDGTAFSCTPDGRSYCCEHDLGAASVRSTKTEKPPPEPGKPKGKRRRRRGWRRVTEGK

[10] = ADAM10 protease inhibitors, dose response, selectivity assay for ADAM17 exosite inhibitor project, biochemical, FRET peptide substrate, recombinant human ADAM10 (AID 743259);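 note: ADAM10 enzyme cleaving a FRET peptide substrate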
Vero = Vero cell cytotoxicity, cytotoxicity control for flavivirus capping enzyme inhibitors (AID 588742); type: functional; conditions: Chlorocebus sabaeus
NS3 = NS3 (Hepatitis C virus, UniProt A3EZJ3); test: PubChem AID 2173; set-up: species or system Hepacivirus hominis
Sequence of NS3 (A3EZJ3 whole entry): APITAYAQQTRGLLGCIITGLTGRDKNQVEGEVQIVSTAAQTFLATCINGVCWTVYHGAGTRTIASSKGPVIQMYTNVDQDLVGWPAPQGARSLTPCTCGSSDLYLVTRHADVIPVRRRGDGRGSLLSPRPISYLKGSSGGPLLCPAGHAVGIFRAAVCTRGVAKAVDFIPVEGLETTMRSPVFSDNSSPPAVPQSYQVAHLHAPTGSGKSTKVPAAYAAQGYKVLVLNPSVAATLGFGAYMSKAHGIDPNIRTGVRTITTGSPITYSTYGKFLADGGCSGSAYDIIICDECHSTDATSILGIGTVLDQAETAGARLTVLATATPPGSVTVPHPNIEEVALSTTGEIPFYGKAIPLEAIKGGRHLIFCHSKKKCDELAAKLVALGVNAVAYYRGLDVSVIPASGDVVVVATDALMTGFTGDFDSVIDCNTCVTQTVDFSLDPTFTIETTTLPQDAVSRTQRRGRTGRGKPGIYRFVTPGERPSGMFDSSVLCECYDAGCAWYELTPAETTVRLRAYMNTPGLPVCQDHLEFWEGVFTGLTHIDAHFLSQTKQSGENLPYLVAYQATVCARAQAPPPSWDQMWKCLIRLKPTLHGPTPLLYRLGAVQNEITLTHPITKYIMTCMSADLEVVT

H9c2 = test: cells; type: functional, cell-based; conditions: Rattus norvegicus, H9c2, Myocardium;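 note: confirmatory concentration-response retest of ultra-high-throughput screening hits for modulation of myocardial damage; cell death induced by hydrogen peroxide oxidative stress; compound pretreatment for 60 min then peroxide exposure for 2 h; potency is for protecting the cells against peroxide damage rather than for killing them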
[11] = target: Disintegrin and metalloproteinase domain-containing protein 17 (Homo sapiens, UniProt P78536); test: exosite inhibitors of ADAM17, dose response, biochemical (AID 743260)
Sequence of Disintegrin and metalloproteinase domain-containing protein 17 (P78536 whole entry, the tested form may be a part): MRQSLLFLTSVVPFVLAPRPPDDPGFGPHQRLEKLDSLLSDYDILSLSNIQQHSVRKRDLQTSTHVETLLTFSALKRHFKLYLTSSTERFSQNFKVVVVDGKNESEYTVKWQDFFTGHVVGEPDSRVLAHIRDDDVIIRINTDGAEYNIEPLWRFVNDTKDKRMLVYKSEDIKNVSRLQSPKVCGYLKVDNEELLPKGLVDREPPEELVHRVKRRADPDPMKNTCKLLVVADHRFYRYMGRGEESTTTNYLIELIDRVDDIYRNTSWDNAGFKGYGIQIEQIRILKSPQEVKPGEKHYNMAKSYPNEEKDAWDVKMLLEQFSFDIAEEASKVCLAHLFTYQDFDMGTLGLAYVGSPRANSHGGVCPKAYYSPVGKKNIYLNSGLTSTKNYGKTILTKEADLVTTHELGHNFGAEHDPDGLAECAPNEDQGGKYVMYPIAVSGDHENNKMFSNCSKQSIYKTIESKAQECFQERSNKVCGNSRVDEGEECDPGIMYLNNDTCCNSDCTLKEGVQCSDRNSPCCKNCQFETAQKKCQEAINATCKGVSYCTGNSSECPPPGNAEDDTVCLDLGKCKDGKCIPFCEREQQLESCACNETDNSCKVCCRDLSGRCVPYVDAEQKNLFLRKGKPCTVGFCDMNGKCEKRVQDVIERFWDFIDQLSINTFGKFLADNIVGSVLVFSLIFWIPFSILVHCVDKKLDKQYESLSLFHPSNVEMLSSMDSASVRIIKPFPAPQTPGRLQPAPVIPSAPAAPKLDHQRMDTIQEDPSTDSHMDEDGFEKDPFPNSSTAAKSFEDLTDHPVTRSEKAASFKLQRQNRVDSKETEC

[12] = target: Polyadenylate-binding protein 1 (Homo sapiens, UniProt P11940); test: PABP poly(A) RNA binding inhibitors, primary screen, biochemical, fluorescence polarization, uHTS (AID 2014)
Sequence of Polyadenylate-binding protein 1 (P11940 whole entry): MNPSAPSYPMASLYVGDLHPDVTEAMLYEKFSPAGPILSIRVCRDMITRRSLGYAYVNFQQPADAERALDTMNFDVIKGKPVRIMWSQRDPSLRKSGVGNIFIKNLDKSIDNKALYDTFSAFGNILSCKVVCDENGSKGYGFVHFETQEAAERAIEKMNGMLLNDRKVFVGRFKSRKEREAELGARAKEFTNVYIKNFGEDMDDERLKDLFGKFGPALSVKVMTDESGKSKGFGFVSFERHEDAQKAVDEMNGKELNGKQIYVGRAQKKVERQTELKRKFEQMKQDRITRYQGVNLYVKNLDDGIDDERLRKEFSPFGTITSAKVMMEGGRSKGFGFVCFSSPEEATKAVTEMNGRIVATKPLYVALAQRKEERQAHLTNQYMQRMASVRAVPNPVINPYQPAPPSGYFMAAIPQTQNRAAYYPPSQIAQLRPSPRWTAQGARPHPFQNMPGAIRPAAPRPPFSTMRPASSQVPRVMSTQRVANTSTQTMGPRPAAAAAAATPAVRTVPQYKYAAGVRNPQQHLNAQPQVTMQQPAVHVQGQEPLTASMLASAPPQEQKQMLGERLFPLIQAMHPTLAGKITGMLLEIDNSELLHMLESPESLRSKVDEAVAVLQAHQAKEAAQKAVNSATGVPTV

[13] = target: Eukaryotic translation initiation factor 4H (Homo sapiens, UniProt Q15056); test: human eIF4H binding inhibitors, primary screen, translation initiation inhibitor project, biochemical, uHTS, fluorescence polarization (AID 2012)
J774.A1 = test: Confirmation of image-based Screening Assay for Inhibitors of Phagocytosis. [Related pubchem assays (depositor defined):AID1029, AID1643]; type: functional, cell-based; conditions: Mus musculus
[14] = cytotoxicity in HEK-293T cells, dose response, cytotoxicity control for TCR NF-kB inhibitor project, luminescence, T-cell screen hits (AID 489026); type: functional, cell-based;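 note: cells exposed to compound about 14 hours before the viability readout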

What does the source list for CC(CCc1ccccc1)NC(=O)COC(=O)c1ccc(S(C)(=O)=O)c([N+](=O)[O-])c1 (centres undefined)?
AC50 [1]: 3.34 µM (active); EC50 (Protein RecA): 3.7 µM (active); AC50 [2]: 9.93 µM (active); AC50 [3]: 10 µM (active); EC50 [4]: 9.29 µM (active); AC50 [5]: 39.4 µM (active)

Which EC50 [6] does the source give for CC(OC(=O)c1nsc(Cl)c1Cl)C(=O)NCc1cccs1 (centres undefined) here?
The EC50 was > 50 µM (not active).

Which IC50 (SUMO-activating enzyme [7]) does the source give for COc1cc2c(C#N)c(N3CCCC3)nc(N)c2c(N)n1 here?
The IC50 was 5.34 µM (active).

What about the IC50 (SUMO-activating enzyme [8]) of the same compound?
Its IC50 is 3.79 µM (active).

And the AC50 [9]?
Its AC50 is 9.62 µM (active).

For CCOc1ccc(/C=C/C(=O)c2cc(Br)ccc(=O)c2O)cc1, which IC50 [10] is on record?
The IC50 was 17.6 µM (inactive).

And the CC50 (Vero)?
Its CC50 is 7 µM (active).

And the IC50 (NS3)?
Its IC50 is 4.35 µM (active).

And the IC50 (H9c2)?
The IC50 was 6.72 µM (active).

And the IC50 [11]?
The IC50 was 11.4 µM (inactive).

Which results are given for O=C(NCC(=O)N1CCN(c2ccccc2O)CC1)c1ccc2c(c1)OCO2?
IC50 [12]: > 100 µM (inactive); IC50 [13]: 28.2 µM (active)

Which results are given for CC(C)Oc1ccccc1C1CC(=O)Nc2cc3c(cc21)OCO3 (centres undefined)?
IC50 (J774.A1): > 25 µM (inactive); IC50 [14]: > 80 µM (inactive)
